Results: US20260232658A1, “AZETIDINYL BENZOXAZOLE COMPOUNDS AND THEIR USE AS MER AND AXL INHIBITORS” (DONG-A ST CO., LTD., priority 2022, published 2026)

Tests used:
TYRO3 (455-end) = target: T1, TYRO3 (455-end) (Homo sapiens, UniProt Q06418); assay: HTRF kinase activity biochemical assay, TYRO3; conditions: recombinant kinase, 10 uM ATP, 30 minutes pre-incubation; read-out: HTRF TYRO IC50;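 also: biotinylated tyrosine kinase substrate phosphorylation detected via streptavidin-XL665 and Eu3+-cryptate anti-phospho antibody time-resolved fluorescence, read after 1 h detection at room temperature, 384-well format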
T1 construct: TYRO3 (455-end); purchased SignalChem, Canada
T1 sequence (Q06418 455-890 limits assumed): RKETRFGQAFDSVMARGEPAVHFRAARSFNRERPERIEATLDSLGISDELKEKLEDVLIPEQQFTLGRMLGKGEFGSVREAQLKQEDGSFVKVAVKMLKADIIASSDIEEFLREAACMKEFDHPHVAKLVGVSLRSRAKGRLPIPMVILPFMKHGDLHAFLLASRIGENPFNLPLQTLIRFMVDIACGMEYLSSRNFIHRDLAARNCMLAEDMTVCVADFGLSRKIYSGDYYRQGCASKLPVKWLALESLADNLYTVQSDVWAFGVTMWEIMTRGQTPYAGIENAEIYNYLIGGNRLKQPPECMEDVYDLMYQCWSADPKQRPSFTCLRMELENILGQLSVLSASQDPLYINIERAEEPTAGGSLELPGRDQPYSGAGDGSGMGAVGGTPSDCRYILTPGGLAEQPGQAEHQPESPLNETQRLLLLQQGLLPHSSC

human MER (528-end) = target: T2, human MER (528-end) (Homo sapiens, UniProt Q12866); assay: HTRF kinase activity biochemical assay, MER; conditions: recombinant kinase, 10 uM ATP, 30 minutes pre-incubation; read-out: HTRF MERTK IC50;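 also: phosphorylation of a biotin-tagged tyrosine kinase substrate detected by Eu3+-cryptate antibody and streptavidin-XL665 time-resolved fluorescence, read after 1 h at room temperature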
T2 construct: human MER (528-end); purchased Carnabio, Japan
T2 sequence (Q12866 528-999 limits assumed): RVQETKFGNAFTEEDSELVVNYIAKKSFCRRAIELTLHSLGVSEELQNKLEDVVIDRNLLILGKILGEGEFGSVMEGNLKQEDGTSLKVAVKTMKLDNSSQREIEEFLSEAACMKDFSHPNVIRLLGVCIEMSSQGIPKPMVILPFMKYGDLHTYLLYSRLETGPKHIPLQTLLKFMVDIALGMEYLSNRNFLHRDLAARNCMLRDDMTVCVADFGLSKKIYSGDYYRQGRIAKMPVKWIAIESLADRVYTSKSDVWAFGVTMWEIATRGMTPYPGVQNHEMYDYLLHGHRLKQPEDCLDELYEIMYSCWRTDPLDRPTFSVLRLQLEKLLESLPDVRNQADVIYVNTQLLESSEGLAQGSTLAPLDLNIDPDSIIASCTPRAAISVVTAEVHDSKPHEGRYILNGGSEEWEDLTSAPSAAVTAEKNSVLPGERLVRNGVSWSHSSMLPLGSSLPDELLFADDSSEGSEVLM

human AXL (473-end) = target: T3, human AXL (473-end) (Homo sapiens, UniProt P30530); assay: HTRF kinase activity biochemical assay, AXL; conditions: recombinant kinase, 10 uM ATP, 30 minutes pre-incubation; read-out: HTRF AXL IC50;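 also: phosphorylation of a biotinylated tyrosine kinase substrate detected via Eu3+-cryptate anti-TK antibody and streptavidin-XL665, fluorescence read after a 1 h incubation at room temperature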
T3 construct: human AXL (473-end); purchased SignalChem, Canada
T3 sequence (P30530 473-894 limits assumed): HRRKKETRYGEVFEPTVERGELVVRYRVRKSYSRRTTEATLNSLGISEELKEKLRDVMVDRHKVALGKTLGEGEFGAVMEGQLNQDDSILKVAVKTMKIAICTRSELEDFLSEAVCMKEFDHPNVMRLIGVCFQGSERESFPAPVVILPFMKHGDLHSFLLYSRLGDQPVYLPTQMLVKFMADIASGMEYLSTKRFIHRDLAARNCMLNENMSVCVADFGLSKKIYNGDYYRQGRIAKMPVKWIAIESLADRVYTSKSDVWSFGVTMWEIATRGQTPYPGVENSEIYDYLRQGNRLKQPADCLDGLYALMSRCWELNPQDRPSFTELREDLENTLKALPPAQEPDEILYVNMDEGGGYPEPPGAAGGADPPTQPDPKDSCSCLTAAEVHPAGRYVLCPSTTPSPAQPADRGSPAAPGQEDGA

Row | Compound | IC50 (TYRO3 (455-end)) [nM] | IC50 (human MER (528-end)) [nM] | IC50 (human AXL (473-end)) [nM]
1 | C[Si](C)(C)CCOCn1cc(Nc2ncc(C3CN(c4nc5ccc(O)cc5o4)C3)nc2C(N)=O)cn1 [Example 0, 6-[1-(6-hydroxy-1,3-benzoxazol-2-yl)azetidin-3-yl]-3-[(1-{[2-(trimethylsilyl)ethoxy]methyl}-1H-pyrazol-4-yl)amino]pyrazine-2-carboxamide] | 2680 | 34 | 60
2 | CCc1ccc2nc(N3CC(c4cnc(Nc5cnn(C)c5)c(C(N)=O)n4)C3)oc2c1 [Example 5, 6-[1-(6-ethyl-1,3-benzoxazol-2-yl)azetidin-3-yl]-3-[(1-methyl-1H-pyrazol-4-yl)amino]pyrazine-2-carboxamide] | 83 | < 1 | 2
3 | Cn1cc(Nc2ncc(C3CN(c4nc5ccc(C6=CCCCC6)cc5o4)C3)nc2C(N)=O)cn1 [Example 6, 6-{1-[6-(cyclohex-1-en-1-yl)-1,3-benzoxazol-2-yl]azetidin-3-yl}-3-[(1-methyl-1H-pyrazol-4-yl)amino]pyrazine-2-carboxamide] | 72 | < 1 | 1.04
4 | Cn1cc(Nc2ncc(C3CN(c4nc5ccc(Br)cc5o4)C3)nc2C(N)=O)cn1 [Example 6A, 6-[1-(6-bromo-1,3-benzoxazol-2-yl)azetidin-3-yl]-3-[(1-methyl-1H-pyrazol-4-yl)amino]pyrazine-2-carboxamide] | 60 | < 1 | 4
5 | Cn1cc(Nc2ncc(C3CN(c4nc5ccc(C6CCCCC6)cc5o4)C3)nc2C(N)=O)cn1 [Example 7, 6-[1-(6-cyclohexyl-1,3-benzoxazol-2-yl)azetidin-3-yl]-3-[(1-methyl-1H-pyrazol-4-yl)amino]pyrazine-2-carboxamide] | 680 | 3 | 6
6 | Cn1cc(Nc2ncc(C3CN(c4nc5ccc(-c6ccccc6)cc5o4)C3)nc2C(N)=O)cn1 [Example 8, 3-[(1-methyl-1H-pyrazol-4-yl)amino]-6-[1-(6-phenyl-1,3-benzoxazol-2-yl)azetidin-3-yl]pyrazine-2-carboxamide] | 280 | 2 | 7
7 | Cn1cc(Nc2ncc(C3CN(c4nc5ccc(C6CCCC6)cc5o4)C3)nc2C(N)=O)cn1 [Example 10, 6-[1-(6-cyclopentyl-1,3-benzoxazol-2-yl)azetidin-3-yl]-3-[(1-methyl-1H-pyrazol-4-yl)amino]pyrazine-2-carboxamide] | 110 | < 1 | < 1
8 | Cn1cc(Nc2ncc(C3CN(c4nc5ccc(C6=CCCC6)cc5o4)C3)nc2C(N)=O)cn1 [Example 10A, 6-{1-[6-(cyclopent-1-en-1-yl)-1,3-benzoxazol-2-yl]azetidin-3-yl}-3-[(1-methyl-1H-pyrazol-4-yl)amino]pyrazine-2-carboxamide] | 690 | 3 | 4
9 | Cn1cc(Nc2ncc(C3CN(c4nc5ccc(C6=CCOCC6)cc5o4)C3)nc2C(N)=O)cn1 [Example 11, 6-{1-[6-(3,6-dihydro-2H-pyran-4-yl)-1,3-benzoxazol-2-yl]azetidin-3-yl}-3-[(1-methyl-1H-pyrazol-4-yl)amino]pyrazine-2-carboxamide] | 280 | 1 | 2
10 | Cn1cc(Nc2ncc(C3CN(c4nc5ccc(C(F)(F)F)cc5o4)C3)nc2C(N)=O)cn1 [Example 12, 3-[(1-methyl-1H-pyrazol-4-yl)amino]-6-{1-[6-(trifluoromethyl)-1,3-benzoxazol-2-yl]azetidin-3-yl}pyrazine-2-carboxamide] | 220 | 1 | 4
11 | COC(=O)c1ccc2nc(N3CC(c4cnc(Nc5cnn(C)c5)c(C(N)=O)n4)C3)oc2c1 [Example 13, methyl 2-(3-{6-carbamoyl-5-[(1-methyl-1H-pyrazol-4-yl)amino]pyrazin-2-yl}azetidin-1-yl)-1,3-benzoxazole-6-carboxylate] | 120 | 2 | 3
12 | NC(=O)c1nc(C2CN(c3nc4ccccc4o3)C2)cnc1Nc1cn[nH]c1 [Example 14, 6-[1-(1,3-benzoxazol-2-yl)azetidin-3-yl]-3-[(1H-pyrazol-4-yl)amino]pyrazine-2-carboxamide] | 490 | 8 | 14
13 | Cn1cc(Nc2ncc(C3CN(c4nc5ccc(C6CCOC6)cc5o4)C3)nc2C(N)=O)cn1 (stereo not drawn) [Example 15, 3-[(1-methyl-1H-pyrazol-4-yl)amino]-6-{1-[6-(oxolan-3-yl)-1,3-benzoxazol-2-yl]azetidin-3-yl}pyrazine-2-carboxamide] | 550 | 3 | 9
14 | Cn1cc(Nc2ncc(C3CN(c4nc5ccc(C6=CCOC6)cc5o4)C3)nc2C(N)=O)cn1 [Example 15A, 6-{1-[6-(2,5-dihydrofuran-3-yl)-1,3-benzoxazol-2-yl]azetidin-3-yl}-3-[(1-methyl-1H-pyrazol-4-yl)amino]pyrazine-2-carboxamide] | 74 | 2 | 5
15 | Cn1cc(Nc2ncc(C3CN(c4nc5ccc(CO)cc5o4)C3)nc2C(N)=O)cn1 [Example 16, 6-{1-[6-(hydroxymethyl)-1,3-benzoxazol-2-yl]azetidin-3-yl}-3-[(1-methyl-1H-pyrazol-4-yl)amino]pyrazine-2-carboxamide] | 860 | 7 | 30
16 | Cn1cc(Nc2ncc(C3CN(c4nc5ccc(/C=C/C(C)(C)O)cc5o4)C3)nc2C(N)=O)cn1 [Example 17, 6-(1-{6-[(1E)-3-hydroxy-3-methylbut-1-en-1-yl]-1,3-benzoxazol-2-yl}azetidin-3-yl)-3-[(1-methyl-1H-pyrazol-4-yl)amino]pyrazine-2-carboxamide] | 241 | – | 2
17 | Cn1cc(Nc2ncc(C3CN(c4nc5ccc(C(=O)O)cc5o4)C3)nc2C(N)=O)cn1 [Example 18A, 2-(3-f{6-carbamoyl-5-[(1-methyl-1H-pyrazol-4-yl)amino]pyrazin-2-yl}azetidin-1-yl)-1,3-benzoxazole-6-carboxylic acid] | > 12500 | 3710 | 5900
18 | Cn1cc(Nc2ncc(C3CN(c4nc5ccc(O)cc5o4)C3)nc2C(N)=O)cn1 [Example 20, 6-[I1-(6-hydroxy-1,3-benzoxazol-2-yl)azetidin-3-yl]-3-[(1-methyl-1H-pyrazol-4-yl)amino]pyrazine-2-carboxamide] | 980 | 29 | –
19 | COC/C=C/c1ccc2nc(N3CC(c4cnc(Nc5cnn(C)c5)c(C(N)=O)n4)C3)oc2c1 [Example 22, 6-(1-{6-[(1E)-3-methoxyprop-1-en-1-yl]-1,3-benzoxazol-2-yl}azetidin-3-yl)-3-[(1-methyl-1H-pyrazol-4-yl)amino]pyrazine-2-carboxamide] | 90 | < 1 | < 1
20 | Cn1cc(Nc2ncc(C3CN(c4nc5ccc(OCC6CC6)cc5o4)C3)nc2C(N)=O)cn1 [Example 23, 6-{1-[6-(cyclopropylmethoxy)-1,3-benzoxazol-2-yl]azetidin-3-yl}-3-[(1-methyl-1H-pyrazol-4-yl)amino]pyrazine-2-carboxamide] | 8 | < 1 | < 1
21 | Cn1cc(Nc2ncc(C3CN(c4nc5ccc(OCC(=O)O)cc5o4)C3)nc2C(N)=O)cn1 [Example 73A, {[2-(3-f{6-carbamoyl-5-[(1-methyl-1H-pyrazol-4-yl)amino]pyrazin-2-yl}azetidin-1-yl)-1,3-benzoxazol-6-yl]oxy}acetic acid] | – | 150 | 210
